The source of these data is ChEMBL document CHEMBL1150263, “Combining docking, molecular dynamics and the linear interaction energy method to predict binding modes and affinities for non-nucleoside inhibitors to HIV-1 reverse transcriptase” (J Med Chem, 2008).

pIC50: −log10 of the molar value.

In the test the target is Human immunodeficiency virus type 1 reverse transcriptase (Human immunodeficiency virus 1, UniProt Q72547). Nature of the test: Inhibition of HIV1 reverse transcriptase.
For `CCc1[nH]c(=O)c(N(C)C)c(Cc2cc(C)cc(C)c2)c1C`, the pIC50 (usually −log10 of the IC50, conventionally taken in molar units) is 8.00. To `CCC1C(Cc2cccc(C)c2)=C(N(C)CCO)C(=O)NC1C` (stereo not drawn) belongs 8.30. As for `CCc1c(C)[nH]c(=O)c(NNC(=S)Nc2ccccc2)c1Cc1cccc(C)c1`, the pIC50 was 5.50. For `Cc1cc(C)cc(Cc2c(C)c(C(C)C)[nH]c(=O)c2N(C)C)c1` the value was 6.10. To `Cc1cc(C)cc(Cc2cc[nH]c(=O)c2N(C)C)c1` belongs 5.10. For `Cc1cc(C)cc(Cc2cc(C)[nH]c(=O)c2N(C)C)c1` the value was 6.40; for `Cc1cc(C)cc(Cc2c(C)c(C)[nH]c(=O)c2N(C)C)c1`, 8.30; for `CCNC(=S)NNc1c(Cc2cccc(C)c2)c(CC)c(C)[nH]c1=O`, 4.60.

In turn, `CCc1c(C)[nH]c(=O)c(NNC(N)=S)c1Cc1cccc(C)c1` showed a negative logarithm of the IC50 (pIC50) of 6.50. For `CCc1c(C)[nH]c(=O)c(N(C)C)c1Cc1cc(C)cc(C)c1` the value was 8.10; for `CCCc1c(C)[nH]c(=O)c(N(C)C)c1Cc1cc(C)cc(C)c1`, 7.30. For `Cc1cc(C)cc(Cc2c(CC(C)C)c(C)[nH]c(=O)c2N(C)C)c1` the value was 7.30; for `Cc1cc(C)cc(Cc2c3c([nH]c(=O)c2N(C)C)CCCC3)c1`, 8.00.
